# Measurements from US20150268219A1, “Method for Renal Transplantation” (Universite Paris Diderot Paris 7, priority 2014, published 2015).
# Assays:
# Type in all cases: cell-based, C57BL/6 mice
# [1] = system: bone marrow-derived macrophages (BMM); assay: Differentiation and TLR-agonist activation (CD86) of bone marrow-derived macrophages cultured with iron
# Description: (§1) Bone Marrow derived macrophages (BMM) were prepared from the femur and tibias of C57BL/6 mice between 6 and 8 weeks of age. Bone marrow cells were cultured for 7-8 days at 37° C. and 5% CO2 in at 2×10^6 cells/ml in RPMI 1640 medium (Invitrogen) containing 10% FBS (v/v; Biowest), penicillin/streptomycin and 15% supernatant of L929 cells (v/v) as a source of M-CSF in the presence or in the absence of FeCl3-nitrilotriacetate (FeCl3-NTA; 10-60 μM as indicated). In some conditions, lipopolysaccharide (LPS) (150 ng/ml) (Sigma-Aldrich), peptidoglycan (PGN) (15 μg/ml), Poly-IC (50 μg/ml) (all from cayla-Invivogen, Toulouse, France) were added 12 hours before BBMs analysis on day 8.
# Cells suspensions were prepared from cell culture or tissue and were incubated with anti-FcγR mAb 2.4G2 to block IgG receptors before cell staining for specific surface markers. Cells (1·10^6) were then stained at 4° C. in PBS containing 1% BSA with antibodies against mouse CD11b (M1/70, BioLegend), F4/80 (BM8, eBioscience), CD86 (GL-1, BioLegend), Ly6G (1A8, BD Biosciences), Ly6C (HK1.4, BioLegend). The presence of macrophages (CD11b^+F4/80^+Ly6G^− cells) in the peritoneum was analyzed by flow cytometry.
# [2] = system: bone marrow-derived macrophages (BMM); assay: Cytokine production in culture supernatant of BMM stimulated with LPS; settings: LPS-Fe-BMM vs LPS-BMM
# Description: as §1
# Kidney tissues were homogenized in 300 μl of RIPA buffer supplemented with phosphatase and protease inhibitors cocktail (Sigma-Aldrich) for 30 s. Samples were cooled on ice for 30 min. Lysates were finally centrifuged at 10 000 g at 4° C. The cytokines IL-6, TNF-α, MCP-1, IL-10 and IL-12 were measured simultaneously by cytometric bead array (CBA) using mouse inflammation kit (according to the manufacturer's instruction (BD biosciences). Results were analyzed using FCAP array software. Proteins were quantified in supernatants by the bicinchoninic acid (BCA) method according to the manufacturer's instructions (Pierce). Cytokine concentrations were normalized to total protein concentration and expressed as picograms per milligram of total tissue protein.
# [3] = system: bone marrow-derived macrophages (BMM); assay: Comparative gene-chip analysis of macrophages treated or not with soluble iron and LPS; settings: data not shown
# Description: as §1
# To further investigate whether iron load could influence macrophage activation, the inventors analyzed responses to TLR agonists. […] Increased iron levels in cultures promoted macrophage unresponsiveness to LPS both when it was added at the onset of cultures from primary bone marrow progenitors (day 0) or to cultures of almost completely differentiated cells (90% CD11b+ and F4/80+BMM; day 4) (data not shown). Thus, increased extracellular iron load impairs macrophage activation. To gain insight into the molecular mechanisms involved in iron load-dependent inhibition of macrophage inflammatory responses, the inventors performed comparative gene-chip analysis of macrophages treated or not with soluble iron (Fe-NTA, 60 μM) and subjected or not to LPS treatment. Venn diagram analysis from Affymetrix® microarray chips confirmed that the overall response to LPS differed between control (BMM) and iron-treated (Fe-BMM) macrophages (data not shown). Comparison Gene Ontology (GO) analysis was further performed to test the biological relevance of genes differing between these conditions.
# [4] = system: bone marrow-derived macrophages (BMM); assay: Reactive oxygen species (ROS) assessment by DCFH fluorescence; settings: BMM differentiated with 10 or 20 μM FeCl3-NTA for 7 days, LPS 150 ng/mL 3 hours; vs control macrophages
# Description: as §1
# Bone-marrow derived macrophages (BMM) were stimulated by LPS (150 ng/ml) to induce ROS production. After 3 hours, BMM were washed with PBS and 5 μM dichlorodihydrofluorescein-diacetate (DCFH-DA) was added and incubated for 20 min at 37° C. Cells were washed again and taken to flow cytometer to ROS analysis. FeCl3-NTA was used as mentioned before and NaOH was used as vehicle.
# [5] = 60 μM, LPS-Fe-BMM compared to LPS-BMM
substance,measurement,setting,value
FeCl3-nitrilotriacetate [Fe-NTA],CD86 up-regulation in response to TLR4 agonist (LPS),"[1]; BMM cultured with 20 or 60 μM iron, LPS 150 ng/mL overnight",not able to up-regulate CD86
same,CD86 up-regulation in response to TLR2 agonist (PGN),"[1]; BMM cultured with 20 or 60 μM iron, PGN overnight",not able to up-regulate CD86
same,CD86 up-regulation in response to TLR3 agonist (poly I:C),"[1]; BMM cultured with 20 or 60 μM iron, poly-IC overnight",not able to up-regulate CD86
same,"macrophage differentiation (cell morphology, CD11b and F4/80 expression)","[1]; BMM differentiated with 20 μM and 60 μM, data not shown",not affected
same,secretion of IL-6,[2],impaired secretion
same,secretion of MCP-1,[2],impaired secretion
same,secretion of TNF-α,[2],impaired secretion
same,genes implicated in inflammatory response,[3]; [5],downregulated
same,genes involved in NF-κB responses,[3]; [5],down-regulated
same,expression of genes involved in anti-oxidant responses,[3]; Fe-BMM compared to control cells,Increased expression
same,expression of genes characterizing M1 or M2 phenotypes,[3]; increased extracellular iron levels,inhibited
same,ROS responses to LPS stimulation,[4],impaired
